Experimental data published in PubChem BioAssay (NCI).
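1) Cells in 96-well plates. 2) Compound, 48 h, 5 concentrations. 3) Linear interpolation between surrounding doses. 4) Unreached endpoint = highest concentration. GI50 = concentration required for 50% inhibition of growth. Definition used: TGI = concentration required for complete inhibition of growth.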 *1 amine or outer side, *2 acyl side, *3 side chain or, on linkers, in order; H or OH if unused. Where a SMILES comes first, the peptide text is derived from it. [ ]: non-standard residue; d: D form. The star is where a group is joined. ξ: configuration not given here. X15 = CCN(CC)c1ccc2cc(N*)c(=O)oc2c1; dIva = CC[C@@](C)(N)C(=O)O; X14 = O=C(OCCN[*:1])[*:2]; Aib = CC(C)(N)C(=O)O; ξP = O=C(O)C1CCCN1; βAla = NCCC(=O)O

Key:
Assay in all cases: inhibition of tumour cell growth, NCI panel, 48 h
SF-295 CNS = tested on: SF-295 CNS
DU-145 prostate = tested on: DU-145 prostate
PC-3 prostate = tested on: PC-3 prostate
U251 CNS = tested on: U251 CNS
HCC-2998 colon = tested on: HCC-2998 colon
HL-60(TB) leukemia = tested on: HL-60(TB) leukemia
SK-OV-3 ovarian = tested on: SK-OV-3 ovarian
MDA-MB-435 = tested on: MDA-MB-435
M14 melanoma = tested on: M14 melanoma
HCT-116 colon = tested on: HCT-116 colon
A549 NSCLC = tested on: A549 NSCLC
SK-MEL-5 melanoma = tested on: SK-MEL-5 melanoma
MALME-3M melanoma = tested on: MALME-3M melanoma
NCI-H460 lung = tested on: NCI-H460 lung
HS 578T breast = tested on: HS 578T breast
MCF7 breast = tested on: MCF7 breast
NCI-H23 lung = tested on: NCI-H23 lung
SR leukemia = tested on: SR leukemia
NCI-H522 lung = tested on: NCI-H522 lung
CCRF-CEM leukemia = tested on: CCRF-CEM leukemia
SNB-19 CNS = tested on: SNB-19 CNS
UACC-62 melanoma = tested on: UACC-62 melanoma
NCI-H226 lung = tested on: NCI-H226 lung
SK-MEL-28 melanoma = tested on: SK-MEL-28 melanoma
TK-10 renal = tested on: TK-10 renal
A498 renal = tested on: A498 renal
SW-620 colon = tested on: SW-620 colon
SNB-75 CNS = tested on: SNB-75 CNS
OVCAR-8 ovarian = tested on: OVCAR-8 ovarian
COLO 205 colon = tested on: COLO 205 colon
HCT-15 colon = tested on: HCT-15 colon
NCI/ADR-RES ovarian = tested on: NCI/ADR-RES ovarian
SN12C renal = tested on: SN12C renal
T-47D breast = tested on: T-47D breast
OVCAR-4 ovarian = tested on: OVCAR-4 ovarian
BT-549 breast = tested on: BT-549 breast
KM12 colon = tested on: KM12 colon
RXF 393 renal = tested on: RXF 393 renal
786-0 renal = tested on: 786-0 renal
HOP-62 NSCLC = tested on: HOP-62 NSCLC
OVCAR-5 ovarian = tested on: OVCAR-5 ovarian
K-562 leukemia = tested on: K-562 leukemia
ACHN renal = tested on: ACHN renal
SK-MEL-2 melanoma = tested on: SK-MEL-2 melanoma
HOP-92 NSCLC = tested on: HOP-92 NSCLC
OVCAR-3 ovarian = tested on: OVCAR-3 ovarian
SF-539 CNS = tested on: SF-539 CNS
UACC-257 melanoma = tested on: UACC-257 melanoma
LOX IMVI melanoma = tested on: LOX IMVI melanoma
HT29 colon = tested on: HT29 colon
MOLT-4 leukemia = tested on: MOLT-4 leukemia
UO-31 renal = tested on: UO-31 renal
EKVX NSCLC = tested on: EKVX NSCLC
CAKI-1 renal = tested on: CAKI-1 renal
SF-268 CNS = tested on: SF-268 CNS

In the case of `CCN(CC)c1ccc2cc(NC(=O)OCCNC(=O)CCNC(=O)[C@H](CC(C)C)NC(=O)C(C)(C)NC(=O)C(C)(C)NC(=O)[C@H](CC(C)C)NC(=O)CCNC(=O)C(C)(C)NC(=O)[C@H](CC(C)C)NC(=O)CCNC(=O)[C@@](C)(CC)NC(=O)[C@H](C)NC(=O)CCNC(=O)C(C)(C)NC(=O)[C@H](C)NC(=O)[C@@H]3CCCN3C(=O)[C@@](C)(CC)NC(=O)[C@H](Cc3ccccc3)NC(=O)C3CCCN3C(=O)C(C)(C)NC(=O)C3CCCN3C(=O)C(C)(C)NC(C)=O)c(=O)oc2c1` (stereo not given in full) (Ac-[Aib][ξP][Aib][ξP]F[dIva]PA[Aib][βAla]A[dIva][βAla]L[Aib][βAla]L[Aib][Aib]L[βAla][X14]-X15), the GI50 (SF-295 CNS) is reported as 3.16 nM, the TGI (SF-295 CNS) is reported as 10.3 nM and the GI50 (DU-145 prostate) is reported as 4.97 nM. For the same molecule, the TGI (DU-145 prostate) was 19.9 nM, the GI50 (PC-3 prostate) was 3.11 nM and the TGI (PC-3 prostate) was 28.1 nM. It also gave a GI50 (U251 CNS) of 3.17 nM, a TGI (U251 CNS) of 16.2 nM and a GI50 (HCC-2998 colon) of 4.77 nM. For the same molecule, the TGI (HCC-2998 colon) was 127 nM, the GI50 (HL-60(TB) leukemia) was 3.16 nM and the TGI (HL-60(TB) leukemia) was 11 nM. For the same molecule, the GI50 (SK-OV-3 ovarian) was 2.8 nM, the TGI (SK-OV-3 ovarian) was 7.75 nM and the GI50 (MDA-MB-435) was 3.53 nM. It also gave a TGI (MDA-MB-435) of 25.2 nM, a GI50 (M14 melanoma) of 8.38 nM and a TGI (M14 melanoma) of 35.8 nM. It also gave a GI50 (HCT-116 colon) of 3.5 nM, a TGI (HCT-116 colon) of 45.5 nM and a GI50 (A549 NSCLC) of 3.54 nM. For the same molecule, the TGI (A549 NSCLC) was 115 nM, the GI50 (SK-MEL-5 melanoma) was 2.56 nM and the TGI (SK-MEL-5 melanoma) was 6.66 nM. For the same molecule, the GI50 (MALME-3M melanoma) was 2.1 nM, the TGI (MALME-3M melanoma) was 5.97 nM and the GI50 (NCI-H460 lung) was 3.48 nM. It also gave a TGI (NCI-H460 lung) of 13.8 nM, a GI50 (HS 578T breast) of 4.5 nM and a TGI (HS 578T breast) of 54.8 nM. For the same molecule, the GI50 (MCF7 breast) was 3.13 nM, the TGI (MCF7 breast) was 28.6 nM and the GI50 (NCI-H23 lung) was 3.47 nM. For the same molecule, the TGI (NCI-H23 lung) was 14 nM, the GI50 (SR leukemia) was 4.23 nM and the TGI (SR leukemia) was 23.5 nM. It also gave a GI50 (NCI-H522 lung) of 3.05 nM, a TGI (NCI-H522 lung) of 12.4 nM and a GI50 (CCRF-CEM leukemia) of 4.65 nM. The TGI (CCRF-CEM leukemia) was 28.7 nM, the GI50 (SNB-19 CNS) was 3.55 nM and the TGI (SNB-19 CNS) was 42.6 nM. The GI50 (UACC-62 melanoma) was 3.85 nM, the TGI (UACC-62 melanoma) was 18.9 nM and the GI50 (NCI-H226 lung) was 5.61 nM. For the same molecule, the TGI (NCI-H226 lung) was 34.8 nM, the GI50 (SK-MEL-28 melanoma) was 7.83 nM and the TGI (SK-MEL-28 melanoma) was 32.5 nM. For the same molecule, the GI50 (TK-10 renal) was 14.2 nM, the TGI (TK-10 renal) was 79 nM and the GI50 (A498 renal) was 2.91 nM. It also gave a TGI (A498 renal) of 26.5 nM, a GI50 (SW-620 colon) of 4.8 nM and a TGI (SW-620 colon) of 102 nM. The GI50 (SNB-75 CNS) was 2.54 nM, the TGI (SNB-75 CNS) was 24.2 nM and the GI50 (OVCAR-8 ovarian) was 5 nM. The TGI (OVCAR-8 ovarian) was 93.9 nM, the GI50 (COLO 205 colon) was 2.37 nM and the TGI (COLO 205 colon) was 6 nM. The GI50 (HCT-15 colon) was 135 nM, the TGI (HCT-15 colon) was 278 nM and the GI50 (NCI/ADR-RES ovarian) was 176 nM. The TGI (NCI/ADR-RES ovarian) was 378 nM, the GI50 (SN12C renal) was 3.4 nM and the TGI (SN12C renal) was 14.3 nM. It also gave a GI50 (T-47D breast) of 3.02 nM, a TGI (T-47D breast) of 14.3 nM and a GI50 (OVCAR-4 ovarian) of 3.47 nM. The TGI (OVCAR-4 ovarian) was 43.9 nM, the GI50 (BT-549 breast) was 3.67 nM and the TGI (BT-549 breast) was 22 nM. It also gave a GI50 (KM12 colon) of 4.25 nM, a TGI (KM12 colon) of 34.8 nM and a GI50 (RXF 393 renal) of 4.9 nM. For the same molecule, the TGI (RXF 393 renal) was 17.3 nM, the GI50 (786-0 renal) was 10.2 nM and the TGI (786-0 renal) was 31.9 nM. It also gave a GI50 (HOP-62 NSCLC) of 3.85 nM, a TGI (HOP-62 NSCLC) of 21 nM and a GI50 (OVCAR-5 ovarian) of 5.06 nM. For the same molecule, the TGI (OVCAR-5 ovarian) was 116 nM, the GI50 (K-562 leukemia) was 4.17 nM and the TGI (K-562 leukemia) was 23.7 nM. For the same molecule, the GI50 (ACHN renal) was 40.6 nM, the TGI (ACHN renal) was 160 nM and the GI50 (SK-MEL-2 melanoma) was 2.66 nM. For the same molecule, the TGI (SK-MEL-2 melanoma) was 6.65 nM, the GI50 (HOP-92 NSCLC) was 25.6 nM and the TGI (HOP-92 NSCLC) was 70.9 nM. It also gave a GI50 (OVCAR-3 ovarian) of 3.38 nM, a TGI (OVCAR-3 ovarian) of 13.9 nM and a GI50 (SF-539 CNS) of 4.91 nM. For the same molecule, the TGI (SF-539 CNS) was 20.2 nM, the GI50 (UACC-257 melanoma) was 2.22 nM and the TGI (UACC-257 melanoma) was 6.5 nM. For the same molecule, the GI50 (LOX IMVI melanoma) was 1.92 nM, the TGI (LOX IMVI melanoma) was 3.84 nM and the GI50 (HT29 colon) was 3.66 nM. The TGI (HT29 colon) was 103 nM, the GI50 (MOLT-4 leukemia) was 3.99 nM and the TGI (MOLT-4 leukemia) was 18.4 nM. It also gave a GI50 (UO-31 renal) of 29.6 nM, a TGI (UO-31 renal) of 114 nM and a GI50 (EKVX NSCLC) of 4.21 nM. The TGI (EKVX NSCLC) was 24.1 nM, the GI50 (CAKI-1 renal) was 156 nM and the TGI (CAKI-1 renal) was 304 nM. The GI50 (SF-268 CNS) was 4.35 nM and the TGI (SF-268 CNS) was 18.7 nM.
